Measurements published in PMC10829382, “Purification and characterization of L-arginine deiminase from Penicillium chrysogenum” (BMC Microbiology, 2024).

Tests used:
[1] = target: T1, L-arginine deiminase (ADI) from Penicillium chrysogenum; test: ammonia release, Nessler's reagent, […] nm; residual activity at […]; type: biochemical
T1 construct: single 49 kDa band on SDS-PAGE

[2] = tested on: T1, L-arginine deiminase (ADI) from Penicillium chrysogenum; test: ammonia release, Nessler's reagent, […] nm; Eadie-Hofstee plot; type: biochemical; conditions: 40 °C, 30 min; phosphate buffer pH 7.5 in the standard assay
[3] = chelator in the reaction mixture, L-arginine as substrate, 40 °C

Work on `O=C(O)CN(CCN(CC(=O)O)CC(=O)O)CC(=O)O` [EDTA] yielded an IC50 [1, 3] of 5.19 mM.
For `N=C(N)NCCC[C@H](N)C(=O)O` [L-arginine], the Km [2] was 750 µM.
For `CC(=O)n1ccnc1` [N-acetyl-imidazole], the IC50 ([1]; covalent, tyrosyl modifier, 150 mM phosphate pH 7.5, 37 °C, 20 min) was 5.4 mM.
`O=C1CCC(=O)N1Br` [N-bromosuccinimide] showed an IC50 ([1]; covalent, tryptophanyl modifier, 1 h in 150 mM phosphate pH 7.5, then dialysed before assay) of 5 mM.
`CCN1C(=O)C=CC1=O` [N-ethylmaleimide] was tested, and the IC50 ([1]; covalent, sulfhydryl modifier, pre-incubated 1 h at 25 °C, 100 mM Tris-HCl pH 5.0, 1 mM EDTA) was 4.95 mM.
In the case of `CC(=O)C(C)=O` [butanedione], the IC50 ([1]; covalent, arginyl modifier, 50 mM sodium borate pH 7.0, room temperature) is reported as 4.66 mM.
Work on `CN(C)c1cccc2c(S(=O)(=O)Cl)cccc12` [dansyl chloride] yielded an IC50 ([1]; covalent, lysyl modifier, 100 mM Tris-HCl pH 7.0, 4 °C, 1 h) of 6.48 mM.
With `CCOC(=O)OC(=O)OCC` [diethylpyrocarbonate] the IC50 ([1]; covalent, histidyl modifier, assay buffer, 25 °C, 5 min) was 6.44 mM.
`c1cnc2c(c1)ccc1cccnc12` [o-phenanthroline] showed an IC50 [1, 3] of 4.79 mM.
With `c1ccc(-c2ccccn2)nc1` [α,α-dipyridyl] the IC50 [1, 3] was 7.46 mM.
